Measured values from article PMC13415033, “Pickering Emulsion Stabilized by Chitosan-Modified Saigae Tataricae Cornu Particles for Improving the Oxidative Stability and In Vivo Pharmacokinetics of Acorus tatarinowii Schott Volatile Oil” (Pharmaceuticals, 2026).

Experiment: GC-MS analysis of volatile components after light exposure
Format: physicochemical
Details: after 5 d of light exposure
Protocol: Untreated ATVO, the physical mixture (10 mL ATVO, 10 mL distilled water, and 0.3 g MSTC mixed uniformly with a glass rod), and the MSTC-stabilized PE were each placed into flat weighing bottles (40 × 25 mm). The samples were stored in a light-stability chamber with a light intensity of 4500 ± 500 lx and a controlled temperature of 25 ± 0.5 °C. Aliquots were collected after 1, 3, and 5 days of light exposure. The physical mixture and PE groups were centrifuged (10,000 rpm, 10 min) to achieve phase separation prior to analysis. All assays were performed in triplicate, and the obtained samples were maintained at 4 °C until analyzed.Volatile oil retention rate (%) = Vt/V0 × 100%(2) The volatile components of ATVO were determined by gas chromatography-mass spectrometry (GC-MS) according to a previously reported method. Samples from each treatment group were prepared before analysis. Briefly, 100 μL of each volatile oil sample was transferred into a 10 mL volumetric flask. Then, 100 μL of n-docosane internal standard solution (10 mg·mL^−1) was added. The mixture was diluted to volume with n-hexane. […] It was then vortex-mixed and filtered through a 0.22 μm organic membrane filter. The filtrate was used for GC-MS analysis. […] Relative quantification was performed using n-docosane as the internal standard. […]

For C=C/C(C)=C/CC=C(C)C [003779-61-1, (E)-3,7-dimethylocta-1,3,6-triene], the “relative content of the component” value (PE group) was “well retained” and the “relative content of the component” value (free ATVO (O) group implied) was “decreased to zero”.
